In series [1] the test system is oxidative stress (ROS, MDA, ORAC). As to the kind of experiment: ROS generation, MDA and ORAC level in chick embryos. The series is classed as in vivo. The note with it: glucose-treated chick embryos. An excerpt: It has been reported that hyperglycemia increased the production of ROS. Blocking the generation of ROS could at least partially prevent the possible damage of hyperglycemia. No doubt, oxidative stress will be induced in glucose treated embryos. This conclusion was confirmed by the determination of ROS and malondialdehyde (MDA) levels, and the anti-oxidation ability in chick embryos on EDD 5. […] However, treatment of 5f decreased both levels of ROS and MDA in a dose-dependent manner.
In addition, the ORAC level is indicative of the anti-oxidative capacity.
ROS generation ratios in the eyes of EDD 5 chick embryos were detected with 5 μmol 2′,7′-dichlorofluorescein-diacetate (DCFH-DA, Sigma-Aldrich). The peroxide content was determined by measuring thiobarbituric-acid-reactive substances (TBARS) with a commercial MDA kit (Nanjing Jiancheng Institute of Biotechnology, Nanjing, China). The procedures for the ORAC assay were modified from the previously described method. The automated ORAC assay was carried out on a decay of the fluorescein signal and determined with an excitation/emission filter pair of 485/527 nm in a GENios Lueifcrase microplate reader (TECAN) at 37 °C. Final results were calculated on the basis of the difference in the area under the fluorescein decay curve between the blank and each sample.

The nature of series [2]: Stability in DMEM containing 5% FBS (RP-HPLC). The series is classed as in vitro ADME. The note with it: 37 °C, 12 h incubation. As for the experimental part:
Predicted from its structure, the stability of 5f will be good and the toxicity will be low. […] After 12 h incubation, 86% of 5f remained intact.
The sample was incubated in high-glucose Dulbecco’s modified Eagle’s medium (DMEM) containing 5% fetal calf serum (FBS) for a period of 48 h. Analyses were scheduled at 0.5, 1.0, 4.0, 8.0, 12.0, 24.0, and 48.0 h. Reverse-phase high performance liquid chromatography (RP-HPLC) was performed on a Cosmosil column (C18, […], 4.6 × 250 mm) using an LC-100 fluid unit (Shanghai Wufeng Inc., China) with a tunable LC-100 UV detector. The eluent was various percentages of methanol containing pure water (flow rate: 1.0 ml/min; λ: 254 nm). The experiments were repeated at least 3 times and compared with the control experiment. The results were shown in Supporting Infromation.

Series [3] is described as follows: Plasma glucose in chick embryos. The series is classed as in vivo. The note with it: glucose-treated chick embryos, EDD 5. As for the experimental part: Figure 4 5f restored neural tube development and marker expression in chick embryos on EDD 5. Glucose concentration (A) and Pax3 protein expression (B) were determined in chick embryos. The plasma glucose concentration was measured using a glucose oxidase-coupled spectrophotometric assay kit. Proteins were detected using the monoclonal antibody anti-Pax3 diluted 1:1000 (DSHB, USA) and visualized using anti-mouse IgG conjugated with horseradish peroxidase (HRP) and Pierce ECL Western Blotting Substrate (Thermo Fisher Scientific, USA) as the substrate of HRP. […] Values were expressed as mean ± SD in each group (n = 10). *P < 0.05, **P < 0.01 vs. control. ^#P < 0.05, ^##P < 0.01 vs. glucose.
The ventricles of embryos were punctured with a 20-gauge needle. At this early embryonic age, 30–40 μL of blood was obtained from the embryos on each EDD 5. The blood containing heparin was centrifuged at 3000 rpm for 15 min. The plasma glucose concentration was measured using a glucose oxidase-coupled spectrophotometric assay kit obtained from Sigma Chemical Co. (St. Louis, MO, USA) according to the manufacturer’s instructions.

Series [4] is described as follows: ORACFL radical absorbance capacity assay. The source says:
With the CHCA scaffold, we hypothesized that 5a–j should have antioxidant activity. Therefore, a radical absorbance capacity assay (ORACFL)[41] was employed to assess their capacities. This method is based on the inhibition of peroxyl-radical-induced oxidation initiated by thermal decomposition of azo-compounds, in this case 2,2′-azo-bis (2-amidinopropane) dihydrochloride (AAPH). Trolox (6-hydroxy-2,5,7,8-tetramethylchroman-2-carboxylic acid) was used as a standard reference. Data is expressed as micromoles of Trolox equivalents (TE) per […] of sample (μmol TE/ml or U/ml).
Antioxidant capacity was determined according to the procedure described previously.

In the next series the test system is HEK293 cells. As to the kind of experiment: Cytotoxicity, MTT growth inhibition. The following applies: 500 μM. Format: cell-based, human. The protocol: In another aspect, the toxicity was evaluated by the growth inhibition of 5f against human embryonic kidney 293 (HEK293) cells. It was shown that 5f was nontoxic to HEK293 cells even at high concentration of 500 μM (Supplementary B of Fig. S2).
HEK293 cells were purchased from Centre of Cells Resource, Shanghai Institute of Life Science, Chinese Academy of Sciences, P. R. China. HEK293 cells in the exponential phase were plated on a 96-well cell culture plate with 5 × 10^3 cells in each well supplemented with 100 U/ml of penicillin and 100 μg/ml of streptomycin, which were cultured in a humidified atmosphere of 95% and 5% CO2 at 37 °C for 24 h. The cells were adherent. […] 6 wells were set for each group. The wells without addition of the drug were set as controls. The cells in each of the wells were cultured for another 24 h. Then 15 μl of MTT (5 mg/mL) was added to each well. The plates were then incubated at 37 °C for 4 hours, then the supernatants were discarded. 150 μL of DMSO solutions were added to each of the wells and the solutions were mixed thoroughly. Then the plates were incubated at 37 °C for another 10 minutes. Each sample was mixed again and the resulting formazan was measured by its absorbance at 570 nm using a BIO-RAD680 plate reader (Thermo, USA). The experiments were repeated at least 3 times and compared with the control experiment. […]

These results are taken from PMC4842970, “Bioactivity Focus of α-Cyano-4-hydroxycinnamic acid (CHCA) Leads to Effective Multifunctional Aldose Reductase Inhibitors” (Scientific Reports, 2016).

On to `CC(=O)N[C@H](COCc1ccccc1)C(=O)NCCCNC(=O)/C(C#N)=C/c1ccc(O)cc1` [Compound 5f, (R,E) - N - (3-(2-acetamido-3-(benzyloxy)propanamido)propyl)-2-cyano-3-(4-hydroxyphenyl)acrylamide], for which the “ORAC level (anti-oxidative capacity) of embryo” value in series [1] (EDD 5) is reported as “recovered”. Besides, the “MDA level in embryo” value in series [1] (EDD 5, dose 1 μM) was “to a normal state”. Moreover, in series [1] (EDD 5, dose 1 μM), the “ROS level in embryo” value was “to a normal state”. Further, the remained intact in series [2] is given as 86%. The plasma glucose level result in series [3] is given as “did not lower”. Also, the ORAC in series [4] (3.125 μg/ml) is 68.1 ± 2.3 U/ml; in series [4] (6.25 μg/ml), 66.5 ± 1.6 U/ml; in series [4] (12.5 μg/ml), 65.7 ± 5.1 U/ml. In addition, the ORAC value in series [4] (concentration of 3.125 μM) was 65.7 U/ml. In the series with HEK293 cells, the “inhibition rate (growth inhibition)” value was found to be 19.2%.
